The values that follow come from ChEMBL document CHEMBL5233220, “A review of currently identified small molecule modulators of microRNA function” (Eur J Med Chem, 2020).

Values joined by “and” are separate entries in the source; they are usually repeats but may differ in a detail not shown here. Equal values may be shown once.

A short description of assay [1]: Inhibition of pre-miR-372 (unknown origin).
For a further assay, the target named is Protein argonaute-2 (Homo sapiens, UniProt Q9UKV8). Put plainly: Binding affinity to AGO2 (unknown origin) assessed as dissociation constant by RIP assay.
A short description of assay [2]: Inhibition of human topoisomerase 2.
Assay [3] has as its system HeLa. Put plainly: Inhibition of miR-96 maturation in human HeLa cells at 40 uM by luciferase assay relative to control. Format: cell-based.
Assay [4] concerns HeLa. Nature of the assay: Inhibition of pre-miR-21 in human HeLa cells by qRT-PCR assay relative to control. Format: cell-based. The conditions noted are these: dose or concentration not given here. (In general: In qPCR the cycle at which signal appears reflects the starting amount.)
Assay [5] can be described thus: Inhibition of miR-21 in human HeLa cells by luciferase assay. Format: cell-based.
For assay [6], the system named is HeLa. Nature of the assay: Inhibition of miR-21 in human HeLa cells by qRT-PCR assay relative to control. Type of assay: cell-based. The following applies: dose or concentration not given here.
The nature of assay [7]: Activation of miR-122 (unknown origin) by luciferase assay.
The nature of assay [8]: Activation of miR-122 (unknown origin) assessed as relative light unit by luciferase assay. The conditions noted are these: filed as activator.
The nature of assay [9]: Binding affinity to pre-miR-21 (unknown origin) assessed as dissociation constant by fluorescence-based assay.
Assay [10] is described as follows: Binding affinity to pre-miR-21 (unknown origin) assessed as dissociation constant.
Assay [11] can be described thus: Inhibition of pre-miR-21 (unknown origin).
Assay [12] is described as follows: Binding affinity to pre-miR-21 (unknown origin) at U bulge assessed as dissociation constant by dicer assay.
Assay [13] in a line: Binding affinity to pre-miR-21 (unknown origin) at A bulge assessed as dissociation constant by dicer assay.
Assay [14] is described as follows: Binding affinity to miR-18a (unknown origin) assessed as dissociation constant.
Assay [15] can be described thus: Binding affinity to miR-96 (unknown origin) assessed as dissociation constant. On the set-up: species or system Homo sapiens.
Assay [16] in a line: Inhibition of miR-96 (unknown origin). On the set-up: species or system Homo sapiens.
The nature of assay [17]: Inhibition of miR-18a (unknown origin) […] by qRT-PCR analysis.
For assay [18], the system named is HeLa. Nature of the assay: Inhibition of miR-10b maturation in human HeLa cells at 100 uM by luciferase assay relative to control. Type of assay: cell-based.
Assay [19] relates to HeLa. Nature of the assay: Inhibition of pre-miR-10b maturation in human HeLa cells at 100 uM by luciferase assay relative to control. Format: cell-based.
A short description of assay [20]: Binding affinity to miR-10b (unknown origin) assessed as dissociation constant.
Assay [21] in a line: Inhibition of miR-27a (unknown origin) maturation at 5 uM relative to control.
Assay [22] is described as follows: Binding affinity to miR-27a (unknown origin) assessed as dissociation constant by FP assay.
In the next assay the test system is MCF7. Put plainly: Inhibition of miR-122 in human MCF7 cells relative to control. The following applies: dose or concentration not given here. Format: cell-based.

As usually defined, the IC50 is the midpoint of a concentration-inhibition curve. The Kd is a measure of binding affinity in units of concentration. For orientation: inhibition means the percentage by which the read-out fell short of the control. Higher therefore signals strong suppression. For orientation: EC50 means the midpoint of the concentration-response curve. Read a high EC50 as weaker potency.

Chain of Protein argonaute-2 (Q9UKV8 whole entry): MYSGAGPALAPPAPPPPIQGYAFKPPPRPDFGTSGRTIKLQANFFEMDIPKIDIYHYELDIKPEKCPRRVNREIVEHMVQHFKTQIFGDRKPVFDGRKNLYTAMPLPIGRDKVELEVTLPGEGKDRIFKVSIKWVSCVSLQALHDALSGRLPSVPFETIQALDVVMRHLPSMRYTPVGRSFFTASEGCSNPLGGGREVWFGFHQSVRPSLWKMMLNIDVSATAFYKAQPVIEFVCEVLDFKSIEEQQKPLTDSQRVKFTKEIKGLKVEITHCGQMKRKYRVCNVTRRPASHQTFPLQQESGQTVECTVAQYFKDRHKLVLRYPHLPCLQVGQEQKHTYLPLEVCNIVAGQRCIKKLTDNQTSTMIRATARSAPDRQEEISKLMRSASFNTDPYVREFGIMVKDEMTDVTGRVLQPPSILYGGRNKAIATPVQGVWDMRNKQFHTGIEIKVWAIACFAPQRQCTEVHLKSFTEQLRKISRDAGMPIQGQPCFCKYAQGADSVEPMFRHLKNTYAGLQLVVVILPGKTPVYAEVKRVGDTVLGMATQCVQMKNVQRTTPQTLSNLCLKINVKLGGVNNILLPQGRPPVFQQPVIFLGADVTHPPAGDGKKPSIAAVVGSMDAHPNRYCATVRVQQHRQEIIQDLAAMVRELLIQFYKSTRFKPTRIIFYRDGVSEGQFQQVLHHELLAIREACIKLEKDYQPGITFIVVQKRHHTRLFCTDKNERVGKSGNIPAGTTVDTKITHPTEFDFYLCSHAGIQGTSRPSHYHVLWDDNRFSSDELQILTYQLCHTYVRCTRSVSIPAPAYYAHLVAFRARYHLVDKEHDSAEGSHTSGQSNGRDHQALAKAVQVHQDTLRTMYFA

As for `CN(c1ccccc1)C1c2ccccc2N=C(NCCCNCCCCNCCCN)C1(C)C` (centres undefined), in assay [1], 1060 nM corresponded to half-maximal inhibition (IC50).
Consider `CC(NS(=O)(=O)c1ccc2nc(O)c(O)nc2c1)C(=O)O` (centres undefined), for which the Kd on Protein argonaute-2 was 126000 nM.
The compound `CCn1cc(C(=O)O)c(=O)c2cc(F)c(N3CCNCC3)nc21` [ENOXACIN] yielded an IC50 in [2] of 30000 nM.
In turn, `CN1CCN(c2ccc3nc(-c4cc(C(C)(C)C)c(OCCCC(=O)NCCCN=[N+]=[N-])c(C(C)(C)C)c4)[nH]c3c2)CC1` had an inhibition in the assay on HeLa [3] of 90%.
With `C#CCNC(=O)c1ccc(/N=N/c2ccccc2)cc1`, the inhibition with HeLa [4] and in the assay on HeLa [6] was 87% throughout. Moreover, the EC50 in [5] was determined as 2000 nM.
The compound `CN(C)CCN1C(=O)c2cccc3cc(N)cc(c23)C1=O` [AMONAFIDE] came in with an IC50 in assay [7] of 3000 nM. Also, in assay [8], the Activity came out at 0.11 RLU.
As for `NC(=O)C1=Cc2ccccc2C/C1=N/CC(=S)Nc1ccccc1`, the Kd in [9] and in assay [10] was 3700 nM each time.
Consider `O=C1c2c(O)ccc(O)c2C(=O)c2c(NCCNCCO)ccc(NCCNCCO)c21` [MITOXANTRONE], for which, in assay [11], half-maximal inhibition (IC50) was put at 3000 nM. Also, the results for the Kd in assay [12] and in [13] were 46 nM and 33 nM, respectively.
As to `CN1CCN(c2ccc(-c3ccc4nc(-c5cc(C(C)(C)C)c(OCCCC(=O)NCCCN=[N+]=[N-])c(C(C)(C)C)c5)[nH]c4c3)cc2)CC1`, the Kd in assay [14] turned out to be 30000 nM; in [15], 85 nM. In addition, the IC50 was 50 nM and 200 nM in [16]; 10000 nM in assay [17].
In the case of `[N-]=[N+]=NC[C@H]1O[C@@H](O[C@H]2[C@H](O[C@H]3O[C@H](CNC(=N)N)[C@@H](O)[C@H](O)[C@H]3NC(=N)N)[C@@H](NC(=N)N)CC[C@@H]2O)[C@H](O)[C@@H]1O[C@H]1O[C@@H](CNC(=N)N)C[C@H](O)[C@H]1NC(=N)N`, the inhibition came to 50% with HeLa [18] and 30% in the assay on HeLa [19]. For the same compound, the Kd in assay [20] came to 417 nM.
On to `CNC(=O)c1cc(Oc2ccc(NC(=O)Nc3ccc(Cl)c(C(F)(F)F)c3)c(F)c2)ccn1` [REGORAFENIB], for which the inhibition in [21] came to 25%. In addition, the Kd in assay [22] was 730 nM.
In the assay on MCF7, `O=C(c1ccccc1)c1c2c3c(cccc3c3ccccc13)C(=O)C=C2` yielded an inhibition of 30%.
